Laboratory results from patent publication US20240285594A1, “COMPOSITIONS AND METHODS FOR TREATING PAIN IN ANIMALS” (North Carolina State University, priority 2023, published 2024).
Entries after “also recorded” stand apart in the source; their conditions may differ. Where two headings read alike, the source gives them in different places.

How the values were obtained:
in vivo = settings: female, Yorkshire cross, pig, plasma, 2.2 mg/kg
Protocol: (§1) Six female Yorkshire cross grower pigs approximately 8 weeks of age with no history of flunixin administration in a 30-day period were sourced from a production farm and enrolled in the study. The pigs were determined to be healthy by veterinary physical examination and pigs initially weighed between 18.0-22.0 kg. The pigs were individually housed in climate-controlled rooms with a 12:12 light dark cycle at the North Carolina State University College of Veterinary Medicine to prevent cross contamination between pigs and damage to jugular catheters. The pens had non-slip flooring, allowed the pigs to move freely, provided enrichment, and were cleaned at least twice daily. The pigs had ad libitum access to water via a nipple drinker and were fed 0.5 quarts of Nature's Match twice daily. […] From the time of arrival until the end of the study, the pigs were monitored at least twice daily for general appearance, attitude, appetite, and wellbeing.
(§2) To facilitate jugular catheter placement, the pigs were sedated with Telazol®, reconstituted with ketamine and xylazine as previously described, intubated, and maintained on gas isoflurane anesthesia. A 22-gauge, 10 cm intravenous catheter (MILA, International, Inc., Florence, KY, USA) was placed into the jugular vein using sterile technique. It was sutured in place with 3-0 nylon and covered in Ioban™ (3M, St. Paul, MN, USA) to prevent damage. The pigs wore custom jackets throughout the study to protect the catheters and an extension set was attached to allow for easy catheter access and restraint-free blood collection.
(§3) All pigs were randomized to determine the first administration route. Group 1 (n=3 pigs) and Group 2 (n=3 pigs) were used in a cross-over design and received 2.2 mg/kg flunixin (Banamine®-S, Merck Animal Health, Madison, NJ, USA) by either the IM or IN route. Following a 5-day washout period, the pigs were administered 2.2 mg/kg flunixin via the opposite route. IN administration was completed using a MAD600 MADgic laryngo-tracheal mucosal atomization device (Teleflex Medical, Morrisville, NC, USA). The luer lock syringe was attached to this device and drug was placed into the nostril. Before administration, 0.22 mL of the drug was added to the device to account for dead space volume. After the IN dose, pigs were encouraged to keep their heads raised for approximately 10 seconds to prevent leakage of the drug out of the nasal cavity. Intramuscular administration was performed in the omotransversarius muscle using a 20G needle.
(§4) Blood samples were collected at 0 (pre-treatment), 0.16, 0.33, 0.5, 0.75, 1, 1.5, 2, 3, 4, 6, 8, 12, 18, 24, 36, 48, and 60 hours post treatment. To avoid heparin contamination in samples, at least 1 mL of blood was collected as a purge sample before 1-2 mL of blood was collected and placed into lithium heparin tubes (BD Vacutainer, Franklin Lakes, NJ, USA). The purge blood was injected back into the catheter before the catheter was flushed with 3-4 mL of heparinized saline to prevent coagulation. The blood tubes were placed on ice for no more than 1 hour before they were processed. Plasma was separated by centrifugation at 3500×g for 10 minutes at 4° C., equally split between two cryovials, mixed, and stored at −80° C. until analysis.
(§5) To prepare samples, 100 μL of plasma was pipetted into a clean borosilicate glass tube (disposable culture tubes, CWR). To pretreat the plasma, 500 μL of 4% phosphoric acid prepared in water was added to each tube. Solid phase extraction was performed on an oasis prime HLB 96 well μElution plate (Waters Corporation, Milford, MA, USA). The plate was prepared by conditioning the plate with 500 μL of methanol followed by 500 μL of ultrapure water.

prostaglandin E2 (PGE2) = experiment: Serum PGE2 after castration of piglets (Example 3); assay type: in vivo
Protocol: Pairwise comparisons of treatments at −24 h: P≥0.77. […] Pairwise comparisons of treatments at 24 h post-castration: P≥0.11.
The objective of this study was to evaluate the effects of intranasal flunixin and intra-inguinal lidocaine application on the castration associated inflammatory response in piglets, as described in Example 1.

[1] = UPAPS behavioral pain scoring and rescue analgesia after castration (Part II); assay type: in vivo, piglets; settings: -1 h, 0 h and +3 h relative to castration; compared to C (saline); listed as FM
Protocol: Behavior scoring was obtained in real-time by observing each piglet for 4-min continuously using Unesp-Botucatu pig acute pain scale (UPAPS). Each piglet was scored by one trained observer at the following timepoints: 1 h before castration (−1 h), immediately post-castration (0 h), and 3 h post-castration (+3 h, FIG. 3). The 4-min sampling time was obtained from the methodology previously validated. Treatments were masked, randomized, and applied to each piglet by a senior researcher. The Unesp-Botucatu UPAPS scale evaluates five behavioral items, with each item divided into four descriptive levels. A numerical score was designated from “0” to “3”, with a “0” representing normal behavior (free of pain) and “3” corresponding to pronounced behavioral deviation (severe pain). Therefore, for each timepoint, piglets may receive a score ranging from 0 (min) to 15 (max; Table 3). Total pain scores were then calculated for each piglet per timepoint. […] This is most referred to rescue analgesia in the literature; and was conducted for each behavioral assessment. Total counts were calculated for piglets identified as requiring or not requiring rescue analgesia by treatment and timepoint. […]

[2] = female, Yorkshire cross, pig, in vivo, 2.2 mg/kg
Protocol: as §1, §2, §3, §4, §5

[3] = Plasma and interstitial fluid concentrations after intravenous or intranasal flunixin meglumine in cattle; assay type: in vivo
Protocol: FIG. 10: Plasma concentration versus time curve for individual cattle (n=4) following a single intravenous dose of flunixin meglumine at 2.2 mg/kg. Samples were simultaneously collected from the opposite jugular vein (via pre-placed catheter) and a pre-placed portal vein catheter. Some variability is observed between sampling sites (jugular vs. portal vein) but overall concentrations and trend are similar over time.
FIG. 11: Plasma concentration versus time curve for individual cattle (n=4) following a single intranasal dose of flunixin meglumine at 2.2 mg/kg. Samples were simultaneously collected from a jugular vein catheter and a pre-placed portal vein catheter. Overall, plasma concentrations are lower following intranasal administration, and the jugular sampling site overestimates systemic concentrations especially following the first 1 hour after administration.
FIG. 12: Interstitial fluid concentration versus time curve for individual cattle (n=4) following a single intranasal (n=2) or intravenous (n=2) dose of flunixin meglumine at 2.2 mg/kg. Samples were collected using an in vivo ultrafiltration collection device and represent tissue unbound concentrations of flunixin. There is systemic absorption following both intravenous and intranasal routes of administration, with tissue concentrations of flunixin detected for at least 24 hours following a single dose.

[4] = Pilot pharmacokinetic study of intranasal flunixin, three catheter sites; assay type: in vivo; settings: female, Yorkshire cross, plasma, inhaled or intranasal, 3.0 mg/kg IN, one grower pig; for AUC / Cmax: pig, 3 mg/kg; for AUC: read-out: area under the curve (AUC) (converted); for Cmax: read-out: peak concentration (Cmax)
Source text: A pilot study in one animal was initially performed to compare jugular venous drug concentrations to those of other sites (femoral artery and auricular artery), as there was concern that drainage of the nasal sinus would produce higher concentrations of flunixin in the blood collected from the jugular vein.
The pilot study involved one female Yorkshire cross grower pig sourced from a production farm weighing 25.3 kg. The pig was sedated with IM Telazol®, ketamine, and xylazine (TKX). The Telazol® was reconstituted with ketamine (250 mg; 2.5 mL) and xylazine (250 mg; 2.5 mL; Dechra Veterinary Products, Overland Park, KS, USA) and administered IM at a dose of 0.03 mL/kg (1.5 mg/kg) for each medication before being intubated and maintained on isoflurane anesthesia. A femoral arterial catheter, jugular venous catheter, and auricular arterial catheter were placed using sterile technique. […] A higher dose than the label dose was chosen to ensure that the drug would be detectable since this study's purpose was to determine an appropriate catheter site. Using an intranasal mucosal atomization device (MAD) (Teleflex, Morrisville, NC, USA) with 1 mL luer lock syringe, each nostril was infused with 0.75 mL (37.5 mg) of flunixin to administer a total of 1.5 mL (75 mg). Plasma samples were collected from each catheter site at pre-treatment (blank), 0.08, 0.25, 0.5, 0.85, 1, 1.5, 2, 2.5, and 3 hours post-treatment and analyzed using ultra performance liquid chromatography and tandem mass spectrometry (UPLC-MS/MS) to determine flunixin concentrations. A non-compartmental pharmacokinetic analysis was then performed.
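For F in this document: grower pigs about 8 weeks old weighing 18.0-22.0 kg, randomized cross-over of both routes separated by a 5-day washout, blood taken via jugular vein catheter.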
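For time flunixin was detectable in plasma post-administration in this document: grower pigs about 8 weeks old weighing 18.0-22.0 kg, randomized cross-over of both routes separated by a 5-day washout, blood taken via jugular vein catheter.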

With `Cc1c(Nc2ncccc2C(=O)O)cccc1C(F)(F)F` [flunixin meglumine] the AUC(0-inf) (in vivo; im) was 6900 ng·h/mL, the AUC(0-t) (in vivo; im) was 6900 ng·h/mL and the CL/F (in vivo; im) was 5 mL/min/kg. For the same compound, the Cmax (in vivo; im) was 4000 ng/mL, the Tmax (in vivo; im) was 12 min and the Vd/F (in vivo; im) was 3.2 L/kg. It also gave an AUC(0-t) (in vivo; inhaled or intranasal) of 4800 ng·h/mL, a CL/F (in vivo; inhaled or intranasal) of 8.33 mL/min/kg and a Cmax (in vivo; inhaled or intranasal) of 2700 ng/mL. It also gave a Tmax (in vivo; inhaled or intranasal) of 12 min, a Vd/F (in vivo; inhaled or intranasal) of 5.4 L/kg and a bioavailability (in vivo; other: intranasal) of 88.5%. The “serum PGE2 concentrations” value (prostaglandin E2 (PGE2); 1 h post-castration, castrated and non-castrated piglets, flunixin 2.2 mg/kg IN vs piglets without the drug) was “lower serum PGE2 concentrations; also recorded: effective”, the “serum PGE2 concentrations” value (prostaglandin E2 (PGE2); 24 h post castration, vs other treatments) was “no observed differences; also recorded: not effective” and the “total UPAPS scores” value [1] was “did not decrease; also recorded: behavioral differences were not noted”. For the same compound, the “time flunixin was detectable in plasma post-administration” value [2] was “up to 60 hours”, the plasma concentrations ([3]; cattle (n=4), single intranasal dose 2.2 mg/kg, compared with intravenous) was “lower” and the “time tissue (interstitial fluid, unbound) concentrations were detected” value ([3]; cattle, single intranasal or intravenous dose 2.2 mg/kg) was “at least 24 hours”. The AUC ([4]; auricular artery) was 12800 ng·h/mL, the Cmax ([4]; auricular artery) was 6000 ng/mL and the AUC ([4]; femoral artery) was 12300 ng·h/mL. The Cmax ([4]; femoral artery) was 5170 ng/mL, the AUC ([4]; jugular vein) was 12800 ng·h/mL and the Cmax ([4]; jugular vein) was 6820 ng/mL. It also gave a Tmax ([4]; all catheter sites, read-out: time to peak concentration (Tmax)) of 15 min.
